Some test systems named below: 786-0 renal; CAKI-1 renal; COLO 205 colon; IGROV1 ovarian; NCI-H460 lung; NCI/ADR-RES ovarian; OVCAR-5 ovarian; SF-295 CNS; SR leukemia; UO-31 renal.
Holding throughout (assay): NCI anticancer screen, dose series, 48 h

The structures appear in SMILES notation.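 Dose response: 5 concentrations. Exposure: 48 h. Format: 96-well plates. Endpoint: linear interpolation; highest concentration if not reached. The concentration for 50% growth inhibition is given as GI50. TGI is the concentration that stops growth completely.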

Regarding `COc1ccc(-c2nc(N)c3ncn(C4OC(CO)C(O)C4O)c3n2)cc1` (centres undefined), the TGI with 786-0 renal, in the assay with CAKI-1 renal, in the assay with COLO 205 colon, in the assay with IGROV1 ovarian, in the assay with NCI-H460 lung and with NCI/ADR-RES ovarian was above 100 µM in each case. For the same compound, the TGI in the assay on OVCAR-5 ovarian, in the assay with SF-295 CNS and with SR leukemia was above 100 µM each time.
Take `O=C(O)CCSC(=O)Nc1cccc([N+](=O)[O-])c1`: the TGI in the assay with 786-0 renal, with CAKI-1 renal, with COLO 205 colon, in the assay on IGROV1 ovarian, in the assay with NCI-H460 lung and in the assay with SF-295 CNS was above 100 µM in each case. For the same compound, the TGI in the assay with SR leukemia and in the assay on UO-31 renal was above 100 µM throughout.
For the compound `COc1cccc(-c2nc(-c3ccc(NC(=O)c4ccccc4)cc3)[nH]c2-c2ccnc(Br)c2)c1`, the GI50 in the assay on 786-0 renal was 0.702 µM; in the assay with CAKI-1 renal, 2.21 µM; in the assay on COLO 205 colon, 3.55 µM; in the assay with IGROV1 ovarian, 6.96 µM; with NCI-H460 lung, 3.53 µM; in the assay with NCI/ADR-RES ovarian it was 3.55 µM. The results for the GI50 with OVCAR-5 ovarian, with SR leukemia and with UO-31 renal were 6.09 µM, 1.94 µM and 2.93 µM, respectively. The TGI in the assay on 786-0 renal was 5.88 µM; with CAKI-1 renal it was 8.02 µM; in the assay on COLO 205 colon, above 100 µM; in the assay with IGROV1 ovarian it was above 100 µM; with NCI-H460 lung it was above 100 µM; with NCI/ADR-RES ovarian, above 100 µM. Further, the TGI in the assay on OVCAR-5 ovarian, in the assay with SR leukemia and in the assay with UO-31 renal was above 100 µM in each case.
Take `N#Cc1ccc(-c2nc3ccc(Cl)cc3[nH]2)cc1`: the TGI in the assay with 786-0 renal, with CAKI-1 renal, in the assay on COLO 205 colon, with IGROV1 ovarian, in the assay on NCI/ADR-RES ovarian and in the assay with SF-295 CNS was above 100 µM in each case. Moreover, the TGI in the assay with SR leukemia and in the assay with UO-31 renal was above 100 µM throughout.
Consider `O=C(c1cc2c(C(F)(F)F)onc2c2ccccc12)C(F)(F)F`, for which the TGI with 786-0 renal is above 45.1 µM; in the assay with CAKI-1 renal, 20.9 µM; with COLO 205 colon, 9.11 µM; with IGROV1 ovarian, above 100 µM; with NCI-H460 lung, 7.17 µM; in the assay on OVCAR-5 ovarian, above 100 µM. Moreover, the TGI in the assay with SF-295 CNS is above 29.3 µM; with SR leukemia, above 100 µM; in the assay on UO-31 renal, 9.52 µM.
Consider `O=C1/C=C/[C@@H](O)[C@@H]2C[C@@H](O)C[C@H]2/C=C/CCC[C@H](CO)O1`, for which the GI50 with 786-0 renal was 1.78 µM; with CAKI-1 renal, 3.74 µM; with COLO 205 colon it was 1.7 µM; in the assay with IGROV1 ovarian, 4.2 µM; in the assay with NCI-H460 lung, 3.21 µM; with NCI/ADR-RES ovarian it was 3.17 µM. In addition, the GI50 in the assay on OVCAR-5 ovarian is 4.19 µM; in the assay on SR leukemia, 2.5 µM; in the assay with UO-31 renal, 2.98 µM. The TGI with 786-0 renal is 4.87 µM; with CAKI-1 renal, above 100 µM; in the assay on COLO 205 colon, 3.32 µM; with IGROV1 ovarian, above 100 µM; in the assay with NCI-H460 lung, above 100 µM; in the assay on NCI/ADR-RES ovarian it was above 100 µM. In addition, the TGI in the assay on OVCAR-5 ovarian, in the assay with SR leukemia and in the assay with UO-31 renal was above 100 µM throughout.
For the compound `O=c1ccccc(-c2ccc(-c3ccco3)cc2)c1O`, the GI50 in the assay with 786-0 renal is 0.834 µM; in the assay on COLO 205 colon it was 3.1 µM; in the assay on IGROV1 ovarian, 0.633 µM; in the assay with NCI-H460 lung it was 0.408 µM; in the assay with NCI/ADR-RES ovarian, 0.388 µM; in the assay with OVCAR-5 ovarian it was 2.79 µM. For the same compound, the figures for the GI50 with SF-295 CNS, in the assay with SR leukemia and in the assay with UO-31 renal were 0.555 µM, 0.581 µM and 0.598 µM, respectively. The TGI with 786-0 renal was found to be 14.7 µM; in the assay with COLO 205 colon it was 49.8 µM; in the assay with IGROV1 ovarian, 73.8 µM; in the assay with NCI-H460 lung, 10.8 µM; in the assay on NCI/ADR-RES ovarian, 4.65 µM; with OVCAR-5 ovarian, 42 µM. The TGI turned out to be 13.6 µM with SF-295 CNS, 19.8 µM in the assay on SR leukemia and 8.42 µM with UO-31 renal.
With `CC(C)Cc1ccc(C(C)/C=C2\CCC(CN3CCCC3)C2=O)cc1` (centres undefined), the TGI came to 3.73 µM with 786-0 renal; 28 µM in the assay on CAKI-1 renal; 22.1 µM with COLO 205 colon; 19 µM with IGROV1 ovarian; 37.9 µM with NCI-H460 lung; 36.3 µM in the assay with OVCAR-5 ovarian. Moreover, the TGI in the assay with SF-295 CNS turned out to be 30.8 µM; with SR leukemia, 5.18 µM; in the assay with UO-31 renal it was 29.5 µM.
As for `O=C(COc1ccc(Cl)cc1)N1N=C(c2ccc([N+](=O)[O-])o2)CC1(O)c1ccccc1` (centres undefined), the TGI with 786-0 renal was 20.7 µM; with CAKI-1 renal it was above 100 µM; with COLO 205 colon, 14.8 µM; in the assay with IGROV1 ovarian, 42 µM; with NCI-H460 lung it was 23.1 µM; with OVCAR-5 ovarian, 29.7 µM. The TGI in the assay with SF-295 CNS is 22.6 µM; with SR leukemia, 23.8 µM; in the assay on UO-31 renal, 23.6 µM.
Regarding `Cc1ccc(NC(=O)CC/C(CC(=O)c2ccc(Cl)cc2)=N\NC(=O)C(=O)NN)cc1C`, the TGI in the assay on 786-0 renal, in the assay on CAKI-1 renal, in the assay with COLO 205 colon, in the assay with IGROV1 ovarian, with NCI-H460 lung and in the assay with OVCAR-5 ovarian was above 100 µM throughout. The TGI in the assay with SF-295 CNS, in the assay with SR leukemia and in the assay on UO-31 renal was above 100 µM in each case.
Regarding `CC(C)c1cccc(C(C)C)c1N=C(N)C#N`, the TGI was above 61.3 µM with 786-0 renal; above 100 µM in the assay on CAKI-1 renal; above 59.1 µM with COLO 205 colon; above 100 µM in the assay on IGROV1 ovarian; above 62.5 µM in the assay with NCI-H460 lung; above 100 µM with OVCAR-5 ovarian. Further, the TGI was above 100 µM in the assay with SF-295 CNS, above 90 µM in the assay on SR leukemia and above 100 µM with UO-31 renal.

Values taken from PubChem BioAssay (NCI).
